Measurements taken from PubChem BioAssay (NCI).
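How tested: cells in 96-well plates exposed to compound for 48 hours at five concentrations. GI50 marks 50% less growth. TGI denotes the concentration required for complete inhibition of growth.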

Experiments:
Test in all cases: NCI-60 cell line screen, 48 h
SW-620 colon = test system: SW-620 colon
SN12C renal = test system: SN12C renal
UACC-257 melanoma = test system: UACC-257 melanoma
HL-60(TB) leukemia = test system: HL-60(TB) leukemia
T-47D breast = test system: T-47D breast
SF-539 CNS = test system: SF-539 CNS
PC-3 prostate = test system: PC-3 prostate
HS 578T breast = test system: HS 578T breast
EKVX NSCLC = test system: EKVX NSCLC
MDA-MB-435 = test system: MDA-MB-435
HCT-15 colon = test system: HCT-15 colon
MALME-3M melanoma = test system: MALME-3M melanoma
NCI-H23 lung = test system: NCI-H23 lung
KM12 colon = test system: KM12 colon
UO-31 renal = test system: UO-31 renal
SF-268 CNS = test system: SF-268 CNS
HCT-116 colon = test system: HCT-116 colon
U251 CNS = test system: U251 CNS
COLO 205 colon = test system: COLO 205 colon
MCF7 breast = test system: MCF7 breast
DU-145 prostate = test system: DU-145 prostate
NCI/ADR-RES ovarian = test system: NCI/ADR-RES ovarian
HT29 colon = test system: HT29 colon
MDA-MB-231 breast = test system: MDA-MB-231 breast
RXF 393 renal = test system: RXF 393 renal
UACC-62 melanoma = test system: UACC-62 melanoma
TK-10 renal = test system: TK-10 renal
OVCAR-5 ovarian = test system: OVCAR-5 ovarian
BT-549 breast = test system: BT-549 breast
HOP-62 NSCLC = test system: HOP-62 NSCLC
SF-295 CNS = test system: SF-295 CNS
OVCAR-4 ovarian = test system: OVCAR-4 ovarian
OVCAR-8 ovarian = test system: OVCAR-8 ovarian
LOX IMVI melanoma = test system: LOX IMVI melanoma
HCC-2998 colon = test system: HCC-2998 colon
M14 melanoma = test system: M14 melanoma
SK-MEL-5 melanoma = test system: SK-MEL-5 melanoma
IGROV1 ovarian = test system: IGROV1 ovarian
ACHN renal = test system: ACHN renal
HOP-92 NSCLC = test system: HOP-92 NSCLC
SK-MEL-2 melanoma = test system: SK-MEL-2 melanoma
A498 renal = test system: A498 renal
NCI-H522 lung = test system: NCI-H522 lung
NCI-H226 lung = test system: NCI-H226 lung
SK-MEL-28 melanoma = test system: SK-MEL-28 melanoma
MOLT-4 leukemia = test system: MOLT-4 leukemia
786-0 renal = test system: 786-0 renal
OVCAR-3 ovarian = test system: OVCAR-3 ovarian
SNB-75 CNS = test system: SNB-75 CNS
CAKI-1 renal = test system: CAKI-1 renal
A549 NSCLC = test system: A549 NSCLC
SNB-19 CNS = test system: SNB-19 CNS
CCRF-CEM leukemia = test system: CCRF-CEM leukemia
RPMI-8226 leukemia = test system: RPMI-8226 leukemia
NCI-H460 lung = test system: NCI-H460 lung
SK-OV-3 ovarian = test system: SK-OV-3 ovarian
K-562 leukemia = test system: K-562 leukemia

In the case of `C/C=C(\C)C(=O)N[C@H]1C(O)C[C@]2(C)C3CC[C@@]4(C)C(CC[C@@H]4C(C)N(C)C)C3CCC2C1O` (some centres undefined), the GI50 (SW-620 colon) is reported as 2.31 µM, the TGI (SW-620 colon) is reported as 6.06 µM and the GI50 (SN12C renal) is reported as 8.47 µM. It also gave a TGI (SN12C renal) of 37.9 µM, a GI50 (UACC-257 melanoma) of 3.22 µM and a TGI (UACC-257 melanoma) of 9.75 µM. For the same molecule, the GI50 (HL-60(TB) leukemia) was 4.44 µM, the TGI (HL-60(TB) leukemia) was 16.9 µM and the GI50 (T-47D breast) was 2.91 µM. It also gave a TGI (T-47D breast) of 17.7 µM, a GI50 (SF-539 CNS) of 1.61 µM and a TGI (SF-539 CNS) of 3.46 µM. For the same molecule, the GI50 (PC-3 prostate) was 8.72 µM, the TGI (PC-3 prostate) was > 52.6 µM and the GI50 (HS 578T breast) was 6.56 µM. The TGI (HS 578T breast) was 29.6 µM, the GI50 (EKVX NSCLC) was 9.38 µM and the TGI (EKVX NSCLC) was > 50.9 µM. The GI50 (MDA-MB-435) was 2.54 µM, the TGI (MDA-MB-435) was 5.85 µM and the GI50 (HCT-15 colon) was 1.71 µM. For the same molecule, the TGI (HCT-15 colon) was 5.01 µM, the GI50 (MALME-3M melanoma) was 2.6 µM and the TGI (MALME-3M melanoma) was 7.47 µM. The GI50 (NCI-H23 lung) was 13.1 µM, the TGI (NCI-H23 lung) was 49.7 µM and the GI50 (KM12 colon) was 6.85 µM. The TGI (KM12 colon) was 25.8 µM, the GI50 (UO-31 renal) was 2.03 µM and the TGI (UO-31 renal) was 5.73 µM. The GI50 (SF-268 CNS) was 2.8 µM, the TGI (SF-268 CNS) was 8.94 µM and the GI50 (HCT-116 colon) was 2.28 µM. It also gave a TGI (HCT-116 colon) of 6.39 µM, a GI50 (U251 CNS) of 4.35 µM and a TGI (U251 CNS) of 27.6 µM. For the same molecule, the GI50 (COLO 205 colon) was 1.74 µM, the TGI (COLO 205 colon) was 3.48 µM and the GI50 (MCF7 breast) was 2.89 µM. For the same molecule, the TGI (MCF7 breast) was 17.4 µM, the GI50 (DU-145 prostate) was 12.6 µM and the TGI (DU-145 prostate) was > 83.3 µM. The GI50 (NCI/ADR-RES ovarian) was 18.4 µM, the TGI (NCI/ADR-RES ovarian) was > 75.5 µM and the GI50 (HT29 colon) was 1.4 µM. For the same molecule, the TGI (HT29 colon) was 5.18 µM, the GI50 (MDA-MB-231 breast) was 6.06 µM and the TGI (MDA-MB-231 breast) was 18 µM. The GI50 (RXF 393 renal) was 7.53 µM, the TGI (RXF 393 renal) was 23.2 µM and the GI50 (UACC-62 melanoma) was 2.18 µM. The TGI (UACC-62 melanoma) was 4.54 µM, the GI50 (TK-10 renal) was 18.1 µM and the TGI (TK-10 renal) was 41.5 µM. The GI50 (OVCAR-5 ovarian) was 16.7 µM, the TGI (OVCAR-5 ovarian) was > 47.9 µM and the GI50 (BT-549 breast) was 16.9 µM. For the same molecule, the TGI (BT-549 breast) was 51.9 µM, the GI50 (HOP-62 NSCLC) was 5.97 µM and the TGI (HOP-62 NSCLC) was 11.8 µM. The GI50 (SF-295 CNS) was 8.83 µM, the TGI (SF-295 CNS) was 29 µM and the GI50 (OVCAR-4 ovarian) was 8.52 µM. For the same molecule, the TGI (OVCAR-4 ovarian) was > 100 µM, the GI50 (OVCAR-8 ovarian) was 28.9 µM and the TGI (OVCAR-8 ovarian) was > 90.8 µM. For the same molecule, the GI50 (LOX IMVI melanoma) was 1.81 µM, the TGI (LOX IMVI melanoma) was 4.7 µM and the GI50 (HCC-2998 colon) was 4.16 µM. For the same molecule, the TGI (HCC-2998 colon) was 9.21 µM, the GI50 (M14 melanoma) was 2.02 µM and the TGI (M14 melanoma) was 3.88 µM. For the same molecule, the GI50 (SK-MEL-5 melanoma) was 1.65 µM, the TGI (SK-MEL-5 melanoma) was 3.46 µM and the GI50 (IGROV1 ovarian) was 13.3 µM. The TGI (IGROV1 ovarian) was > 43.7 µM, the GI50 (ACHN renal) was 10.3 µM and the TGI (ACHN renal) was 43.4 µM. It also gave a GI50 (HOP-92 NSCLC) of 6.44 µM, a TGI (HOP-92 NSCLC) of 33.4 µM and a GI50 (SK-MEL-2 melanoma) of 24.1 µM. For the same molecule, the TGI (SK-MEL-2 melanoma) was 49.1 µM, the GI50 (A498 renal) was 10.4 µM and the TGI (A498 renal) was 30.1 µM. For the same molecule, the GI50 (NCI-H522 lung) was 11.2 µM, the TGI (NCI-H522 lung) was > 43.7 µM and the GI50 (NCI-H226 lung) was 12.1 µM. For the same molecule, the TGI (NCI-H226 lung) was > 70.2 µM, the GI50 (SK-MEL-28 melanoma) was 2.04 µM and the TGI (SK-MEL-28 melanoma) was 3.83 µM. The GI50 (MOLT-4 leukemia) was 4.06 µM, the TGI (MOLT-4 leukemia) was 17.2 µM and the GI50 (786-0 renal) was 4.95 µM. It also gave a TGI (786-0 renal) of 10.6 µM, a GI50 (OVCAR-3 ovarian) of 4.68 µM and a TGI (OVCAR-3 ovarian) of 19.5 µM. It also gave a GI50 (SNB-75 CNS) of 10.7 µM, a TGI (SNB-75 CNS) of 26.6 µM and a GI50 (CAKI-1 renal) of 9.42 µM. It also gave a TGI (CAKI-1 renal) of 38.8 µM, a GI50 (A549 NSCLC) of 9.54 µM and a TGI (A549 NSCLC) of 33.6 µM. The GI50 (SNB-19 CNS) was 18.8 µM, the TGI (SNB-19 CNS) was 43.8 µM and the GI50 (CCRF-CEM leukemia) was 7.76 µM. The TGI (CCRF-CEM leukemia) was 75.8 µM, the GI50 (RPMI-8226 leukemia) was 5.95 µM and the TGI (RPMI-8226 leukemia) was 25.5 µM. It also gave a GI50 (NCI-H460 lung) of 2.07 µM, a TGI (NCI-H460 lung) of 4.59 µM and a GI50 (SK-OV-3 ovarian) of 16.1 µM. It also gave a TGI (SK-OV-3 ovarian) of 42.4 µM, a GI50 (K-562 leukemia) of 1.9 µM and a TGI (K-562 leukemia) of 8.34 µM.
